Laboratory results taken from patent US20240117431A1, “STEM-CELL BASED BIOMARKER DISCOVERY” (THE REGENTS OF THE UNIVERSITY OF CALIFORNIA, priority 2020, published 2024).

Tested on: mutant TgUPRT (triple mutants 3×MT, M166A/A168G/Y228A and M166A/A168G/Y228G) in HEK293 cells
Assay: In-cell RNA incorporation by mutant TgUPRT, streptavidin dot blot
Type: cell-based, Toxoplasma gondii
Method: Transfection, labeling of cellular RNA and RNA isolation: After 48h seeding, HEK293 cells were transfected with 2.5 μg of TgUPRT WT or mutant plasmids (pKN-CMV-TgUPRT-WT or -Mutt to Mut17) per 5 cm plate using JetPrime Transfection reagent (Polyplus Transfection, France). At 40h post-transfection, cells were incubated with a final concentration of 200 μM at <1% DMSO from 400 mM stock of uracil analogs (5EU, 5VU, 5AU) or 200 mM SAMU stock for 5 h. For time course study, HEK cells were treated with 200 μM uracil analogs for 0 h, 0.5, 1, 3, 5, 12 and 24 hours. For titrating uracil analog concentration experiments, HEK cells were treated with 0 (DMSO), 50, 100, 200, 500 μM or 1 mM uracil analog for 5h. Treated HEK cells were subjected to total RNA extraction using 1 mL Trizol Reagent (Invitrogen) following the manufacturer instructions.
Biotinylation via CuAAC and IEDDA: Cu-mediated Azide-Alkyne cycloaddition (CuAAC) click reactions were performed in 50 μL reaction at 22° C. on a shaker for 30 min with click reaction cocktail containing 15 μg of total RNA, 1 mM biotin alkyne or biotin azide, fresh 4.6 mM THPTA to a final concentration of 1 mM, and fresh 10.6 mM sodium ascorbate (NaAsc) at final concentration of 1.77 mM, and 12 mM CuSO4 at final concentration of 200 μM in biotinylation reaction buffer (10 mM TrisHCI, 1 mM EDTA, pH7.4). The biotinylated RNA was purified using RNA clean & Concentrator-5 kit (Zymo Research, Cat #R1013) according to the manufacturer instructions and eluted in 21 μL of nuclease free water.
Inverse electron demand [4+2] Diels-Alder cycloaddition (IEDDA) click reactions were performed in 50 μL at 37° C. or 22° C. (RT) for 3h on mixer at 500 rpm containing 10-15 μg of total RNA, 1 mM final concentration of biotin-benzyl tetrazine (Sigma Aldrich, Cat #793329-5MG) in nuclease free water. Clicked total RNA was purified using RNA clean & Concentrator-5 kit (Zymo Research, Cat #R1013) according to the manufacturer instructions, and RNA was eluted in 21 μL of nuclease free water.
HRP-streptavidin dot blot analysis: All gel reagents were from Bio-Rad. […]

Question: What does the source list for `C=Cc1c[nH]c(=O)[nH]c1=O` [compound 2, 5-Vinylpyrimidine-2,4(1H,3H)-dione]?
Answer: analog incorporation over time with mutant TgUPRT enzymes (200 μM time course to 24 h, in comparison to wild-type): much more robust over time; time at which analog incorporation was observed (200 μM time course, dot blot, FIG. 9B): 0.5 hr; incorporation into RNA by triple mutants (3×MT) (200 μM, 5 hours, HEK293T): robust incorporation
